Results taken from US20110263539A1, “SHIP 1 MODULATOR COMPOUNDS” (THE UNIVERSITY OF BRITISH COLUMBIA, priority 2006, published 2011).

Experiments:
[1] = test system: ΔC2 SHIP; experiment: SHIP enzyme assay with C2 domain deleted SHIP; format: biochemical; conditions: PI-3,4-P2 20 μM or Compound 100 3 μM, 30 μM IP4
Source text: A His6 tagged SHIP ΔC2 domain deletion mutant (deleting residues 725 to 863) in the mammalian expression vector pME18S was generated by a standard PCR-based methodology. An N-terminal His6 C2 domain construct was also generated by PCR inserted into the pET28C bacterial expression vector using EcoRI and NdeI restriction sites.
The allosteric regulation of enzymes has remained under-appreciated primarily because allosteric effectors are not easy to find. The molecular mechanism by which Compound 100 activated SHIP was investigated, first by performing classical enzyme kinetic analysis of its phosphatase activity. Activity measurements were performed with substrate concentrations from 10-100 μM.
The SHIP protein contains a C2 domain located at the carboxyterminal end of its phosphatase domain. […] SHIP lacking its the C2 domain (ΔC2 SHIP) was prepared.

[2] = test system: 100 protein kinase and phosphatase targets; experiment: Profiling on 100 protein kinase and phosphatase targets; format: biochemical; conditions: 2 μM final concentration
Method: Compound profiling activity was undertaken using 100 protein kinase and phosphatase targets by SignalChem (Richmond, BC, Canada. www.signalchem.com) against compound Compound 100 (2 μM final concentration). Protein kinase assays were performed in the presence of 50 μM ATP at 30° C. for 15 min. Protein phosphatase activities were determined using pNPP as substrate and were also performed at 37° C. for 15 min. The activity of the enzymes in the presence of Compound 100 was compared to that in the vehicle control and expressed as a % change in activity relative to that observed in the vehicle control. Changes in activity of <25% were not considered significant. Enzymes affected by Compound 100 are plotted in an expanded graph in FIG. 12B.

[3] = test system: J774.1a macrophage cells; experiment: Macrophage TNF-α production (Assay 2); format: cell-based; conditions: 10 μg/mL test compound, 100 ng/mL LPS, ELISA; also: key: a ‘+’ indicates a positive result for desired activity; a ‘−’ indicates a negative result for desired activity
Method: Assay 2) Macrophage TNF-α production. J774.1a macrophage cells were treated with 10 μg/mL of test compound dissolved in solvent (e.g. cyclodextran) for 40 minutes prior to the addition of 100 ng/mL LPS. Culture supernatants were collected after 2 hr and 5 hr for TNF-α determination by ELISA.

[4] = test system: MM cell lines; experiment: In vitro Multiple Myeloma (MM) assay (Assay 7); format: cell-based; as to Assay Number 7: In vitro Multiple Myeloma (MM) assay: key: a ‘+’ indicates a positive result for desired activity; a ‘−’ indicates a negative result for desired activity
Method: Assay 7) In vitro Multiple Myeloma (MM) assay. The ability of SHIP activators to reduce tumor cell survival was assessed in MM cell lines treated with the test compound. The lines OPM1, OPM2, MM.1S and RPMI 8226 were plated at a density of 1×10^5 cells/mL in 200 μL of medium with various concentrations of the test compound, and viable cell numbers were determined on day 3 and day 5 by trypan blue exclusion. The lines RPMI 8226 and U266 were plated at a density of 1×10^6 cells/mL in 250 μL of medium with various concentrations of the test compound. At day 4, the medium of each culture was replaced by fresh medium containing the same concentration of test compound. At day 7, the viable cell number of each culture was determined by trypan blue exclusion.
MM cell lines were cultured in 96 well plates seeded with 3×10^4 cells suspended in 200 μL of medium along with various concentrations of test compound (and associated cyclodextran vehicle control), with LY294002 serving as a positive control in the experiments. After 24-48 hrs of culture, […] of [3H]-thymidine (GE Healthcare, Baie D'Urfe, Canada) being added for the final 8 hours. Cells were harvested and DNA associated radioactivity was measured via liquid scintillation counting using a Wallac Microbeta counter (Perkin-Elmer; Boston, Mass.).
The ability of SHIP activators to reduce tumor cell survival was assessed in multiple myeloma (MM) cell lines treated with Compound 100 or AQX-016A. The lines OPM1, OPM2, MM.1S and RPMI 8226 were plated at a density of 1×10^5 cells/mL in 200 μL of medium with various concentrations of Compound 100, and viable cell numbers were determined on day 3 and day 5 by trypan blue exclusion. The lines RPMI 8226 and U266 were plated at a density of 1×10^6 cells/mL in 250 μL of medium with various concentrations of AQX-016A. At day 4, the medium of each culture was replaced by fresh medium containing the same concentration of AQX-016A. At day 7, the viable cell number of each culture was determined by trypan blue exclusion. Experiments were performed in triplicate.
Proliferation (DNA synthesis) assays. Proliferation was measured by measuring incorporation of [^3H]-thymidine into cells. MM cell lines were cultured in 96 well plates seeded with 3×10^4 cells suspended in 200 μL, of medium along with various concentrations of Compound 100 or AQX-016A (and associated cyclodextran vehicle control), with LY294002 serving as a positive control in the indicated experiments. After 24-48 hrs of culture, 1 μCi of [^3H]-thymidine (GE Healthcare, Baie D'Urfe, Canada) being added for the final 8 hours. Plates were frozen, which also aided in cell lysis, to terminate the experiments. Cells were then harvested onto glass fibre filters using an automatic cell harvester (TomTech; Orange, Conn.) and DNA associated radioactivity was measured via liquid scintillation counting using a Wallac Microbeta counter (Perkin-Elmer; Boston, Mass.). Wells were set up in triplicate and data is expressed as mean+/−SEM.

[5] = test system: Mast cells; experiment: Stimulation of mast cells by FcεRI crosslinking (Assay 4); format: cell-based; conditions: anti-DNP IgE, DNP-HSA
Method: Assay 4) Stimulation of mast cells by FcåRI crosslinking. Mast cells were pre-loaded overnight in BMMC medium lacking IL-3 with 0.1 μg/ml anti-DNP IgE (SPE-7, Sigma, Oakville, Ont). For calcium flux measurements, cells were incubated with 2 μM fura 2-acetoxymethyl ester (Molecular Probes, Eugene, Oreg.) in Tyrode's buffer at 23° C. for 45 min. Cells were then washed and incubated in the presence of the test compound 30 min prior to stimulation with the indicated concentration of DNP-human serum albumin (DNP-HSA). Calcium influx was monitored by spectrofluorometry as described previously. For analysis of intracellular signaling, cells were pre-loaded with anti-DNP IgE as above, pre-treated with the test compound for 30 min at 37° C. and stimulated with 20 ng/ml DNP-HSA for 5 min. Total cell lysates were then prepared and analyzed for phospho-PKB, phospho-p38^MAPK, phospho-MAPK, Grb-2 (Cell Signalling, Mississauga, Ont) and SHIP^6 by immunoblot analysis.

ΔC2 SHIP enzyme activity [1]: could not be enhanced
off-target effects [2]: minimal off-target effects
Structure (SMILES): Cc1cc(O)cc2c1[C@]1(C)CCC3C(C)(C)CCC[C@]3(C)[C@H]1C2 (stereo partly drawn) [Compound 100]
Assay Number 2: Macrophage TNF-α production [3]: +
Assay Number 7: In vitro Multiple Myeloma (MM) assay [4]: +
MM proliferation ([4]; viable cell numbers, trypan blue exclusion): inhibits MM proliferation at lower concentrations than AQX-016A
Assay Number 4: Stimulation of mast cells by FcεRI crosslinking [5]: +
